In ChEMBL document CHEMBL3046319, “PCR-RFLP detection of the E198A mutation conferring resistance to benzimidazoles in field isolates of Monilinia laxa from Greece” (Crop Prot, 2012):
In brackets after ≈: the same amount, converted by molar mass. Activity calls are given as the source filed them. No cut-off for these calls is given here.

Tests used:
Monilinia laxa [1] = assay: Fungicidal activity against Monilinia laxa isolate MLBO3 assessed as reduction in mycelial growth rate at 25 degC after 4 days; assay type: functional, organism-based; conditions: isolate MLBO3, 96 h
Monilinia laxa [2] = assay: Fungicidal activity against Monilinia laxa isolate MLK12 assessed as reduction in mycelial growth rate at 1 to 10 ug/ml at 31 degC after 5 days; assay type: functional, organism-based
Monilinia laxa [3] = assay: Fungicidal activity against Monilinia laxa isolate MLK1 assessed as reduction in mycelial growth rate at 1 to 10 ug/ml at 31 degC after 5 days; assay type: functional, organism-based
Monilinia laxa [4] = assay: Fungicidal activity against Monilinia laxa isolate MLG1 assessed as reduction in mycelial growth rate at 1 to 10 ug/ml at 31 degC after 5 days; assay type: functional, organism-based
Monilinia laxa [5] = assay: Fungicidal activity against Monilinia laxa isolate MLC3 assessed as reduction in mycelial growth rate at 1 to 10 ug/ml at 31 degC after 5 days; assay type: functional, organism-based
Monilinia laxa [6] = assay: Fungicidal activity against Monilinia laxa isolate MLBO7 assessed as reduction in mycelial growth rate at 1 to 10 ug/ml at 31 degC after 5 days; assay type: functional, organism-based
Monilinia laxa [7] = assay: Fungicidal activity against Monilinia laxa isolate MLP4 assessed as mean number of conidia produced in the colony at 25 degC after 12 days by haemocytometer; assay type: functional
Monilinia laxa [8] = assay: Fungicidal activity against Monilinia laxa isolate MLK1 assessed as mean number of conidia produced in the colony at 25 degC after 12 days by haemocytometer; assay type: functional
Monilinia laxa [9] = assay: Fungicidal activity against Monilinia laxa isolate MLX1 assessed as mean mycelial colony diameter at 25 degC after 4 days; assay type: functional
Monilinia laxa [10] = assay: Fungicidal activity against Monilinia laxa isolate MLC2 assessed as mean mycelial colony diameter at 25 degC after 4 days; assay type: functional
Monilinia laxa [11] = assay: Fungicidal activity against Monilinia laxa isolate MLBO5 assessed as mean mycelial colony diameter at 25 degC after 4 days; assay type: functional
Monilinia laxa [12] = assay: Fungicidal activity against Monilinia laxa isolate MLK12 assessed as mycelial growth at 1 ug/ml at 25 degC after 4 days; assay type: functional
Monilinia laxa [13] = assay: Fungicidal activity against Monilinia laxa isolate MLK1 assessed as mycelial growth at 1 ug/ml at 25 degC after 4 days; assay type: functional
Monilinia laxa [14] = assay: Fungicidal activity against Monilinia laxa isolate MLP7 assessed as reduction in mycelial growth rate at 1 to 10 ug/ml at 28 degC after 8 days; assay type: functional, organism-based
Monilinia laxa [15] = assay: Fungicidal activity against Monilinia laxa isolate MLP4 assessed as reduction in mycelial growth rate at 1 to 10 ug/ml at 28 degC after 8 days; assay type: functional, organism-based
Monilinia laxa [16] = assay: Fungicidal activity against Monilinia laxa isolate MLK6 assessed as reduction in mycelial growth rate at 1 to 10 ug/ml at 28 degC after 8 days; assay type: functional, organism-based
Monilinia laxa [17] = assay: Fungicidal activity against Monilinia laxa isolate MLK5 assessed as reduction in mycelial growth rate at 1 to 10 ug/ml at 28 degC after 8 days; assay type: functional, organism-based
Monilinia laxa [18] = assay: Fungicidal activity against Monilinia laxa isolate MLG5 assessed as reduction in mycelial growth rate at 25 degC after 4 days; assay type: functional, organism-based; conditions: isolate MLG5, 96 h
Monilinia laxa [19] = assay: Fungicidal activity against Monilinia laxa isolate MLG2 assessed as reduction in mycelial growth rate at 25 degC after 4 days; assay type: functional, organism-based; conditions: isolate MLG2, 96 h
Monilinia laxa [20] = assay: Fungicidal activity against Monilinia laxa isolate MLC3 assessed as reduction in mycelial growth rate at 1 to 10 ug/ml at 28 degC after 8 days; assay type: functional, organism-based
Monilinia laxa [21] = assay: Fungicidal activity against Monilinia laxa isolate MLB1 assessed as reduction in mycelial growth rate at 1 to 10 ug/ml at 28 degC after 8 days; assay type: functional, organism-based
Monilinia laxa [22] = assay: Fungicidal activity against Monilinia laxa isolate MLC3 assessed as reduction in mycelial growth rate at 25 degC after 4 days; assay type: functional, organism-based; conditions: isolate MLC3, 96 h
Monilinia laxa [23] = assay: Fungicidal activity against Monilinia laxa isolate MLBO6 assessed as reduction in mycelial growth rate at 25 degC after 4 days; assay type: functional, organism-based; conditions: isolate MLBO6, 96 h
Monilinia laxa [24] = assay: Fungicidal activity against Monilinia laxa isolate MLP4 assessed as reduction in mycelial growth rate at 1 to 10 ug/ml at 25 to 28 degC; assay type: functional, organism-based
Monilinia laxa [25] = assay: Fungicidal activity against Monilinia laxa isolate MLK5 assessed as reduction in mycelial growth rate at 1 to 10 ug/ml at 25 to 28 degC; assay type: functional, organism-based
Monilinia laxa [26] = assay: Fungicidal activity against Monilinia laxa isolate KX3 assessed as reduction in mycelial growth rate at 1 to 10 ug/ml at 31 degC after 5 days; assay type: functional, organism-based
Monilinia laxa [27] = assay: Fungicidal activity against Monilinia laxa isolate MLKS1 assessed as reduction in mycelial growth rate at 25 degC after 4 days; assay type: functional, organism-based; conditions: isolate MLKS1, 96 h
Monilinia laxa [28] = assay: Fungicidal activity against Monilinia laxa isolate MLBO5 assessed as reduction in mycelial growth rate at 1 to 10 ug/ml at 31 degC after 5 days; assay type: functional, organism-based
Monilinia laxa [29] = assay: Fungicidal activity against Monilinia laxa isolate MLP4 assessed as virulence in prune fruits assessed as virulence treated 10 min prior to mycelial inoculation at 24 degC after 10 days relative to isolate MLX1by pathogenicity bioassay; assay type: functional
Monilinia laxa [30] = assay: Fungicidal activity against Monilinia laxa isolate MLG1 assessed as mean mycelial colony diameter at 25 degC after 4 days; assay type: functional
Monilinia laxa [31] = assay: Fungicidal activity against Monilinia laxa isolate MLA1 assessed as virulence in prune fruits assessed as virulence treated 10 min prior to mycelial inoculation at 24 degC after 10 days relative to isolate MLX1by pathogenicity bioassay; assay type: functional
Monilinia laxa [32] = assay: Fungicidal activity against Monilinia laxa isolate MLBO4 assessed as reduction in mycelial growth rate at 1 to 10 ug/ml at 31 degC after 5 days; assay type: functional, organism-based
Monilinia laxa [33] = assay: Fungicidal activity against Monilinia laxa isolate MLBO3 assessed as reduction in mycelial growth rate at 1 to 10 ug/ml at 31 degC after 5 days; assay type: functional, organism-based
Monilinia laxa [34] = assay: Fungicidal activity against Monilinia laxa isolate MLA1 assessed as reduction in mycelial growth rate at 1 to 10 ug/ml at 31 degC after 5 days; assay type: functional, organism-based
Monilinia laxa [35] = assay: Fungicidal activity against Monilinia laxa isolate MLX3 assessed as reduction in mycelial growth rate at 1 to 10 ug/ml at 31 degC after 5 days; assay type: functional, organism-based
Monilinia laxa [36] = assay: Fungicidal activity against Monilinia laxa isolate MLX1 assessed as reduction in mycelial growth rate at 1 to 10 ug/ml at 31 degC after 5 days; assay type: functional, organism-based
Monilinia laxa [37] = assay: Fungicidal activity against Monilinia laxa isolate KX3 assessed as reduction in mycelial growth rate at 25 degC after 4 days; assay type: functional, organism-based; conditions: isolate KX3, 96 h
Monilinia laxa [38] = assay: Fungicidal activity against Monilinia laxa isolate MLX4 assessed as reduction in mycelial growth rate at 25 degC after 4 days; assay type: functional, organism-based; conditions: isolate MLX4, 96 h
Monilinia laxa [39] = assay: Fungicidal activity against Monilinia laxa isolate MLX2 assessed as reduction in mycelial growth rate at 25 degC after 4 days; assay type: functional, organism-based; conditions: isolate MLX2, 96 h
Monilinia laxa [40] = assay: Fungicidal activity against Monilinia laxa isolate MLP7 assessed as reduction in mycelial growth rate at 25 degC after 4 days; assay type: functional, organism-based; conditions: isolate MLP7, 96 h
Monilinia laxa [41] = assay: Fungicidal activity against Monilinia laxa isolate MLK9 assessed as reduction in mycelial growth rate at 25 degC after 4 days; assay type: functional, organism-based; conditions: isolate MLK9, 96 h
Monilinia laxa [42] = assay: Fungicidal activity against Monilinia laxa isolate MLK6 assessed as reduction in mycelial growth rate at 25 degC after 4 days; assay type: functional, organism-based; conditions: isolate MLK6, 96 h

Structure (SMILES): COC(=O)Nc1nc2ccccc2[nH]1 [CARBENDAZIM]
- EC50 (Monilinia laxa [1]): 0.05 µg/mL (≈ 0.262 µM)
- inhibition (Monilinia laxa [2]): Active
- inhibition (Monilinia laxa [3]): Active
- inhibition (Monilinia laxa [4]): Active
- inhibition (Monilinia laxa [5]): Active
- inhibition (Monilinia laxa [6]): Active
- Activity (Monilinia laxa [7]): 3.98 /cm2
- Activity (Monilinia laxa [8]): 6.55 /cm2
- Activity (Monilinia laxa [9]): 31.25 mm
- Activity (Monilinia laxa [10]): 29.5 mm
- Activity (Monilinia laxa [11]): 29.5 mm
- Activity (Monilinia laxa [12]): 95.82%
- Activity (Monilinia laxa [13]): 99.9%
- inhibition (Monilinia laxa [14]): inactive
- inhibition (Monilinia laxa [15]): inactive
- inhibition (Monilinia laxa [16]): inactive
- inhibition (Monilinia laxa [17]): inactive
- EC50 (Monilinia laxa [18]): 0.09 µg/mL (≈ 0.471 µM)
- EC50 (Monilinia laxa [19]): 0.08 µg/mL (≈ 0.418 µM)
- inhibition (Monilinia laxa [20]): inactive
- inhibition (Monilinia laxa [21]): inactive
- EC50 (Monilinia laxa [22]): > 50 µg/mL
- EC50 (Monilinia laxa [23]): 0.12 µg/mL (≈ 0.628 µM)
- inhibition (Monilinia laxa [24]): inactive
- inhibition (Monilinia laxa [25]): inactive
- inhibition (Monilinia laxa [26]): Active
- EC50 (Monilinia laxa [27]): 0.11 µg/mL (≈ 0.575 µM)
- inhibition (Monilinia laxa [28]): Active
- Activity (Monilinia laxa [29]): 100%
- Activity (Monilinia laxa [30]): 25.55 mm
- Activity (Monilinia laxa [31]): 90.33%
- inhibition (Monilinia laxa [32]): Active
- inhibition (Monilinia laxa [33]): Active
- inhibition (Monilinia laxa [34]): Active
- inhibition (Monilinia laxa [35]): Active
- inhibition (Monilinia laxa [36]): Active
- EC50 (Monilinia laxa [37]): 0.09 µg/mL (≈ 0.471 µM)
- EC50 (Monilinia laxa [38]): 0.11 µg/mL (≈ 0.575 µM)
- EC50 (Monilinia laxa [39]): 0.12 µg/mL (≈ 0.628 µM)
- EC50 (Monilinia laxa [40]): > 50 µg/mL
- EC50 (Monilinia laxa [41]): 0.08 µg/mL (≈ 0.418 µM)
- EC50 (Monilinia laxa [42]): > 50 µg/mL
